{"source": "paper PMC10053770", "about": "“Assessment of the Pharmacokinetics, Disposition, and Duration of Action of the Tumour-Targeting Peptide CEND-1” (International Journal of Molecular Sciences, 2023)", "experiment": "Clinical pharmacokinetics in patients with metastatic pancreatic ductal adenocarcinoma", "format": "in vivo, human", "details": "for Vd: 3.2 mg/kg, read-out: Vz", "description": "In this study, CEND-1 PK data from up to 28 participants receiving either 1.6 mg/kg (n = 14) and 3.2 mg/kg (n = 14) in the expansion cohort were analysed. Details of this phase I clinical study, conducted in patients with metastatic pancreatic ductal adenocarcinoma receiving CEND-1 in combination with nab-paclitaxel and gemcitabine, are described in detail by Dean et al.. PK parameters were measured following CEND-1 monotherapy (run-in day 1) and combination therapy (cycle 1 day 1 and cycle 6 day 1, if applicable).\nIn the initial monotherapy run-in phase, single doses of CEND-1 were given one to seven days before the start of the combination chemotherapy. In the combination therapy phase, patients first received an intravenous infusion of nab-paclitaxel (125 mg/m^2) over 30 min (±3 min). CEND-1 was then given intravenously as a slow IV push over 1 min (±30 s). The intravenous infusion of gemcitabine (1000 mg/m^2 over 30 min (±3 min)) was started within 10 min of CEND-1 administration. On all occasions, plasma samples were collected from patients before the CEND-1 infusion and at 3 min (±1 min), 15 min (±3 min), 30 min (±3 min), 1 hour (±5 min), ¾ h (±10 min) and 6/8 h (±10 min) after completion of the infusion.\nNo formal sample size calculation was performed. Samples of 2–12 animals and 31 pancreatic cancer patients were considered acceptable to perform initial pharmacokinetic evaluations. The concentrations of CEND-1 were used to calculate PK parameters by employing a non-compartmental analysis (Phoenix^TM WinNonlin, version 6.1). The linear log trapezoidal algorithm, with a weighting of 1/Y*Y was used for parameter calculations. Mean PK parameters were calculated from individual animals in each treatment group. Concentrations below the LLOQ (if any) were excluded for the calculation of PK parameters. The mean values of PK parameters were calculated using Microsoft Excel version 2010.", "key": {"[1]": {"details": "pancreatic cancer patients, 3.2 mg/kg IV, plasma, Cycle 1 Day 1 with nab-paclitaxel+gemcitabine, mean, N=9"}, "[2]": {"details": "pancreatic cancer patients, 3.2 mg/kg IV, plasma, Cycle 1 Day 1 with nab-paclitaxel+gemcitabine, mean, N=13"}, "[3]": {"details": "pancreatic cancer patients, 3.2 mg/kg IV, plasma, Cycle 6 Day 1 with nab-paclitaxel+gemcitabine, N=1"}, "[4]": {"details": "pancreatic cancer patients, 3.2 mg/kg IV, plasma, Cycle 6 Day 1 with nab-paclitaxel+gemcitabine, mean, N=5"}, "[5]": {"details": "pancreatic cancer patients, 3.2 mg/kg IV, plasma, Run-In (monotherapy), mean, N=7"}, "[6]": {"details": "pancreatic cancer patients, 3.2 mg/kg IV, plasma, Run-In (monotherapy), mean, N=8"}}, "note": "Where two headings read alike, the source gives them in different places.", "data": [{"smiles": "CC(=O)N[C@H]1CSSC[C@@H](C(N)=O)NC(=O)[C@H](CC(=O)O)NC(=O)[C@@H]2CCCN2C(=O)CNC(=O)[C@H](CCCCN)NC(=O)[C@H](CC(=O)O)NC(=O)CNC(=O)[C@H](CCCNC(=N)N)NC1=O", "note": "[CEND-1]", "values": [{"measurement": "Vd", "setting": "human, plasma, iv, pancreatic cancer patients, 3.2 mg/kg IV, plasma, Cycle 1 Day 1 with nab-paclitaxel+gemcitabine, mean, N=9", "result": 0.263, "unit": "L/kg"}, {"measurement": "Vd", "setting": "human, plasma, iv, pancreatic cancer patients, 3.2 mg/kg IV, plasma, Run-In (monotherapy), mean, N=7", "result": 0.269, "unit": "L/kg"}, {"measurement": "Tmax", "setting": "human, plasma, iv, patients, run-in day 1, 1.6 and 3.2 mg/kg, read-out: time of peak plasma concentration (first post-dose PK sampling timepoint) (converted)", "result": 3, "unit": "min"}, {"measurement": "level at 8 h", "setting": "human, plasma, patients, run-in day 1, 1.6 and 3.2 mg/kg IV, SD = 317.9, read-out: mean plasma concentration by 8 h post-dose", "result": 0.439, "unit": "µg/mL"}, {"measurement": "AUC0-t", "setting": "human, pancreatic cancer patients, 3.2 mg/kg IV, plasma, Cycle 6 Day 1 with nab-paclitaxel+gemcitabine, mean, N=5, read-out: AUC0-t", "result": 30.6, "unit": "µg·h/mL"}, {"measurement": "Cmax", "setting": "human, pancreatic cancer patients, 3.2 mg/kg IV, plasma, Cycle 6 Day 1 with nab-paclitaxel+gemcitabine, mean, N=5, read-out: Cmax", "result": 25.8, "unit": "µg/mL"}, {"measurement": "Tmax", "setting": "human, pancreatic cancer patients, 3.2 mg/kg IV, plasma, Cycle 6 Day 1 with nab-paclitaxel+gemcitabine, mean, N=5, read-out: Tmax", "result": 3.78, "unit": "min"}, {"measurement": "AUC0-inf/D", "setting": "[1]", "result": 9592, "unit": "kg·ng·h/mL"}, {"measurement": "AUC(0-inf)", "setting": "[1]", "result": "30,690 h*ng/mL"}, {"measurement": "CL", "setting": "[1]", "result": 0.1075, "unit": "L/h/kg"}, {"measurement": "t1/2", "setting": "[1]", "result": 103.5, "unit": "min"}, {"measurement": "λlast", "setting": "[1]", "result": 0.4082, "unit": "h⁻¹"}, {"measurement": "AUC0-t", "setting": "[2]", "result": "28,610 h*ng/mL"}, {"measurement": "AUC0-t/D", "setting": "[2]", "result": 8942, "unit": "kg·ng·h/mL"}, {"measurement": "Cmax", "setting": "[2]", "result": "24,050 ng/mL"}, {"measurement": "Cmax/D", "setting": "[2]", "result": 7514, "unit": "kg*ng/mL/m"}, {"measurement": "Tlast", "setting": "[2]", "result": 5.767, "unit": "h"}, {"measurement": "Tmax", "setting": "[2]", "result": 6.78, "unit": "min"}, {"measurement": "AUC0-inf/D", "setting": "[3]", "result": "10,440 h*kg*ng/mL"}, {"measurement": "AUC(0-inf)", "setting": "[3]", "result": "33,400 h*ng/mL"}, {"measurement": "CL", "setting": "[3]", "result": 0.0958, "unit": "L/h/kg"}, {"measurement": "Vz", "setting": "[3]", "result": 0.2209, "unit": "L/kg"}, {"measurement": "t1/2", "setting": "[3]", "result": 95.88, "unit": "min"}, {"measurement": "λlast", "setting": "[3]", "result": 0.4338, "unit": "h⁻¹"}, {"measurement": "AUC0-t/D", "setting": "[4]", "result": 9558, "unit": "kg·ng·h/mL"}, {"measurement": "Cmax/D", "setting": "[4]", "result": 8050, "unit": "kg*ng/mL/m"}, {"measurement": "Tlast", "setting": "[4]", "result": 4.897, "unit": "h"}, {"measurement": "AUC0-inf/D", "setting": "[5]", "result": "10,800 h*kg*ng/mL"}, {"measurement": "AUC(0-inf)", "setting": "[5]", "result": "34,560 h*ng/mL"}, {"measurement": "CL", "setting": "[5]", "result": 0.0976, "unit": "L/h/kg"}, {"measurement": "t1/2", "setting": "[5]", "result": 117.4, "unit": "min"}, {"measurement": "λlast", "setting": "[5]", "result": 0.3607, "unit": "h⁻¹"}, {"measurement": "AUC0-t", "setting": "[6]", "result": "31,330 h*ng/mL"}, {"measurement": "AUC0-t/D", "setting": "[6]", "result": 9791, "unit": "kg·ng·h/mL"}, {"measurement": "Cmax", "setting": "[6]", "result": "31,210 ng/mL"}, {"measurement": "Tlast", "setting": "[6]", "result": 6.725, "unit": "h"}, {"measurement": "Tmax", "setting": "[6]", "result": 7.02, "unit": "min"}, {"measurement": "plasma half-life", "setting": "patients, intravenous administration", "result": "~120", "unit": "min"}]}]}
